Test results: patent publication US5093231A, “Substrate composition for alkaline phosphatase and method for assay using same” (Becton, Dickinson and Company, priority 1991, dated 1992)

Legend:
[1] = tested on: bovine liver alkaline phosphatase; experiment: Potency of the p-bromo analogue relative to levamisole as AP inhibitor; format: biochemical
[2] = Accelerated stability of levamisole (and its p-bromo analogue) in various buffers; functional amount measured by inhibition of bovine liver AP; conditions: pH 9.8
Method: (§1) Various buffers were prepared at 100 mM concentrations, containing 1 mM magnesium chloride, and adjusted to pH 9.8. […] (accelerated decomposition study). […] Bovine liver AP was added and the reaction kinetics were followed at 405 nm.

[3] = tested on: bovine liver alkaline phosphatase; experiment: as above; conditions: for Percent of Functional Levamisole Remaining: Day 0
Method: as §1

[4] = cited from earlier work
[5] = tested on: AP from the intestine; conditions: Van Belle, Biochim. et Biophys. Acta., 289, 158 (1972); cited from earlier work

**Q.** Which results are given for `Brc1ccc([C@H]2CN3CCSC3=N2)cc1` [p-bromolevamisole]?
**A.** fold more potent than levamisole [1]: approximately 10 fold; remaining at 72 h, 100 µM ([2]; amp buffer): 55.4%; remaining at 216 h, 100 µM ([2]; amp buffer): 23.9%; remaining at 408 h, 100 µM ([2]; amp buffer): 9.6%; remaining at 72 h, 100 µM ([2]; ampd buffer): 74%; remaining at 216 h, 100 µM ([2]; ampd buffer): 37.3%; remaining at 408 h, 100 µM ([2]; ampd buffer): 18.5%; remaining at 72 h, 100 µM ([2]; carbonate buffer): 44.4%; remaining at 216 h, 100 µM ([2]; carbonate buffer): 10.8%; remaining at 408 h, 100 µM ([2]; carbonate buffer): 2.62%; remaining at 72 h, 100 µM ([2]; diethanolamine buffer): 33.6%; remaining at 216 h, 100 µM ([2]; diethanolamine buffer): 1.3%; remaining at 408 h, 100 µM ([2]; diethanolamine buffer): 0.53%; remaining at 72 h, 100 µM ([2]; glycine buffer): 0.29%; remaining at 216 h, 100 µM ([2]; glycine buffer): 0.25%; remaining at 408 h, 100 µM ([2]; glycine buffer): 0%; remaining at 72 h, 100 µM ([2]; triethanolamine buffer): 59%; remaining at 216 h, 100 µM ([2]; triethanolamine buffer): 22.1%; remaining at 408 h, 100 µM ([2]; triethanolamine buffer): 7.86%; Percent of Functional Levamisole Remaining ([3]; AMP buffer, as in Example I (pH 9.8, 45° C.), 0.1 mM p-bromolevamisole): 100%; Percent of Functional Levamisole Remaining ([3]; AMPD buffer, as in Example I (pH 9.8, 45° C.), 0.1 mM p-bromolevamisole): 100%; Percent of Functional Levamisole Remaining ([3]; Carbonate buffer, as in Example I (pH 9.8, 45° C.), 0.1 mM p-bromolevamisole): 100%; Percent of Functional Levamisole Remaining ([3]; Diethanolamine buffer, as in Example I (pH 9.8, 45° C.), 0.1 mM p-bromolevamisole): 100%; Percent of Functional Levamisole Remaining ([3]; Glycine buffer, as in Example I (pH 9.8, 45° C.), 0.1 mM p-bromolevamisole): 100%; Percent of Functional Levamisole Remaining ([3]; Triethanolamine buffer, as in Example I (pH 9.8, 45° C.), 0.1 mM p-bromolevamisole): 100%; decomposition compared with the parent compound levamisole ([3]; pH 9.8, 45° C., summary of Table II): quite a bit faster than the parent compound

**Q.** For `c1ccc([C@H]2CN3CCSC3=N2)cc1` [levamisole, (-)2,3,5,6-tetrahydro-6-phenylimidazo[1,2-b]thiazole], which “decomposition rate at pH 7.9 relative to pH 2” value ([4]; elevated temperature, Dickinson et al., Analyst, 96, 248 (1971)) is on record?
**A.** The value was 70 times.

**Q.** And the “pH of solution at which levamisole hydrolyzes” value ([4]; in solution)?
**A.** Its value is no less than 4.

**Q.** What about the remaining at 72 h, 1000 µM ([2]; amp buffer) of the same compound?
**A.** The remaining at 72 h, 1000 µM was 118%.

**Q.** And the remaining at 216 h, 1000 µM ([2]; amp buffer)?
**A.** The remaining at 216 h, 1000 µM was 107%.

**Q.** And the remaining at 408 h, 1000 µM ([2]; amp buffer)?
**A.** Its remaining at 408 h, 1000 µM is 87.1%.

**Q.** What about the remaining at 72 h, 1000 µM ([2]; ampd buffer) of the same compound?
**A.** The remaining at 72 h, 1000 µM was 110%.

**Q.** And the remaining at 216 h, 1000 µM ([2]; ampd buffer)?
**A.** The remaining at 216 h, 1000 µM was 90.2%.

**Q.** And the remaining at 408 h, 1000 µM ([2]; ampd buffer)?
**A.** Its remaining at 408 h, 1000 µM is 71.7%.

**Q.** And the remaining at 72 h, 1000 µM ([2]; carbonate buffer)?
**A.** The remaining at 72 h, 1000 µM was 63.8%.

**Q.** And the remaining at 216 h, 1000 µM ([2]; carbonate buffer)?
**A.** The remaining at 216 h, 1000 µM was 32.1%.

**Q.** And the remaining at 408 h, 1000 µM ([2]; carbonate buffer)?
**A.** Its remaining at 408 h, 1000 µM is 13.7%.

**Q.** And the remaining at 72 h, 1000 µM ([2]; diethanolamine buffer)?
**A.** Its remaining at 72 h, 1000 µM is 79.8%.

**Q.** What about the remaining at 216 h, 1000 µM ([2]; diethanolamine buffer) of the same compound?
**A.** Its remaining at 216 h, 1000 µM is 9.12%.

**Q.** What about the remaining at 408 h, 1000 µM ([2]; diethanolamine buffer) of the same compound?
**A.** The remaining at 408 h, 1000 µM was 0.31%.

**Q.** What about the remaining at 72 h, 1000 µM ([2]; glycine buffer) of the same compound?
**A.** Its remaining at 72 h, 1000 µM is 0.08%.

**Q.** What about the remaining at 216 h, 1000 µM ([2]; glycine buffer) of the same compound?
**A.** The remaining at 216 h, 1000 µM was 0.02%.

**Q.** What about the remaining at 408 h, 1000 µM ([2]; glycine buffer) of the same compound?
**A.** The remaining at 408 h, 1000 µM was 0%.

**Q.** What about the remaining at 72 h, 1000 µM ([2]; triethanolamine buffer) of the same compound?
**A.** Its remaining at 72 h, 1000 µM is 94.4%.

**Q.** And the remaining at 216 h, 1000 µM ([2]; triethanolamine buffer)?
**A.** Its remaining at 216 h, 1000 µM is 66.6%.

**Q.** What about the remaining at 408 h, 1000 µM ([2]; triethanolamine buffer) of the same compound?
**A.** The remaining at 408 h, 1000 µM was 37.6%.

**Q.** What about the “Percent of Functional Levamisole Remaining” value ([3]; AMP buffer 100 mM, 1 mM magnesium chloride, pH 9.8, 45° C., 1 mM levamisole) of the same compound?
**A.** The value was 100%.

**Q.** And the “Percent of Functional Levamisole Remaining” value ([3]; AMPD buffer 100 mM, 1 mM magnesium chloride, pH 9.8, 45° C., 1 mM levamisole)?
**A.** The value was 100%.

**Q.** And the “Percent of Functional Levamisole Remaining” value ([3]; Carbonate buffer 100 mM, 1 mM magnesium chloride, pH 9.8, 45° C., 1 mM levamisole)?
**A.** Its value is 100%.

**Q.** And the “Percent of Functional Levamisole Remaining” value ([3]; Diethanolamine buffer 100 mM, 1 mM magnesium chloride, pH 9.8, 45° C., 1 mM levamisole)?
**A.** The value was 100%.

**Q.** And the “Percent of Functional Levamisole Remaining” value ([3]; Glycine buffer 100 mM, 1 mM magnesium chloride, pH 9.8, 45° C., 1 mM levamisole)?
**A.** The value was 100%.

**Q.** And the “Percent of Functional Levamisole Remaining” value ([3]; Triethanolamine buffer 100 mM, 1 mM magnesium chloride, pH 9.8, 45° C., 1 mM levamisole)?
**A.** Its value is 100%.

**Q.** What about the “stability of levamisole compared between buffers” value ([3]; pH 9.8, 45° C., summary of Table I) of the same compound?
**A.** Its value is “substantially greater in AMPD and particularly in AMP than in other buffers”.

**Q.** And the “fold less potent toward AP from the intestine than toward AP from several mammalian tissue types” value [5]?
**A.** The value was “approximately 100 fold”.
